Source: patent publication US20240262826A1, “WILD TYPE KIT INHIBITORS” (Blueprint Medicines Corporation, priority 2022, published 2024)

Biological target: wild type c-kit (Homo sapiens (Human), UniProt P10721)
Assay: PathScan phospho c-kit (Tyr719) sandwich ELISA in SCF-stimulated M-07e cells (pKIT assay)
Type: cell-based
Settings: ELISA assay (values not marked *)
Text: The ability of compounds of the disclosure (described herein as test compounds) to inhibit autophosphorylation of wild type c-kit was measures using either a PathScan phospho c-kit (Tyr719) sandwich ELISA (CST #7298) or a Phospho c-Kit (Tyr721) Assay Whole Cell Lysate Kit (MSD: 515DPD/catalog number K15119D-2).
For the PathScan phospho c-kit (Tyr719) sandwich ELISA: M-07e cells were resuspended at 2×10^6 cells/mL in phenol red free, serum-free, GM-CSF-free Iscove's Modified Dulbecco's Medium (IMDM) media with 1% Penicillin-Streptomycin. The cells were then dispensed into the wells of a U-bottom, 96-well plate at 50 uL per well using a multichannel pipet. The plate was allowed to incubate at 37° C. in a humidified tissue culture incubator for 4 hours.
After 4 hours of incubation, each well was dosed with 6.25 uL of test compound at a final DMSO concentration of 0.25% for 60 min at 37° C. to generate an 8-point dose concentration series of test compounds in duplicate. Cells were then incubated for 1 hour at 37° C. in a humidified tissue culture incubator. Next, human SCF at 500 ng/mL was added to the appropriate wells at 6.25 uL/well and the plate was shaken at 450 rpm at room temperature for 10 minutes. AlphaLISA 5× Lysis Buffer supplemented with 1× protease and phosphatase inhibitor was then added at 16 uL/well. The plate was sealed with an adherent cover and shaken at 4° C. at 600 rpm for 30 minutes. After this period of lysis, the plate was stored at −80° C.
When the 96-well plate containing M07e lysates was ready to be processed, the plate was brought to room temperature and 40 μl from each well was transferred to the wells of a PathScan Phospho-c-Kit (Tyr719) Sandwich ELISA plate (CST, Catalog #7298). The ELISA plate was sealed with an adherent cover and incubated for 2 hours at 37° C. Next, the wells were washed 4 times with the provided 1× Wash Buffer, and 100 uL/well of reconstituted Detection Antibody was added to each well, the plate sealed with an adherent cover, and incubated at 37° C. for 1 hour. The wash procedure was repeated and 100 uL/well of reconstituted HRP-Linked secondary antibody was added. The plate was sealed with an adherent cover and incubated at 37° C. for 1 hour. The wash procedure was repeated and 100 uL/well of TMB Substrate was added. The plate was incubated for 10 minutes at room temperature or until the positive reaction elicited a blue color in the appropriate wells. 100 uL/well of STOP solution was added and shaken gently for a few seconds a microplate reader or conventional spectrophotometer e.g., a Perkin Elmer Envision multimode plate reader, part #2105-0010.
An IC50 was calculated using a 4-parameter logistic nonlinear regression.

wild type c-kit, sequence (P10721 26-976): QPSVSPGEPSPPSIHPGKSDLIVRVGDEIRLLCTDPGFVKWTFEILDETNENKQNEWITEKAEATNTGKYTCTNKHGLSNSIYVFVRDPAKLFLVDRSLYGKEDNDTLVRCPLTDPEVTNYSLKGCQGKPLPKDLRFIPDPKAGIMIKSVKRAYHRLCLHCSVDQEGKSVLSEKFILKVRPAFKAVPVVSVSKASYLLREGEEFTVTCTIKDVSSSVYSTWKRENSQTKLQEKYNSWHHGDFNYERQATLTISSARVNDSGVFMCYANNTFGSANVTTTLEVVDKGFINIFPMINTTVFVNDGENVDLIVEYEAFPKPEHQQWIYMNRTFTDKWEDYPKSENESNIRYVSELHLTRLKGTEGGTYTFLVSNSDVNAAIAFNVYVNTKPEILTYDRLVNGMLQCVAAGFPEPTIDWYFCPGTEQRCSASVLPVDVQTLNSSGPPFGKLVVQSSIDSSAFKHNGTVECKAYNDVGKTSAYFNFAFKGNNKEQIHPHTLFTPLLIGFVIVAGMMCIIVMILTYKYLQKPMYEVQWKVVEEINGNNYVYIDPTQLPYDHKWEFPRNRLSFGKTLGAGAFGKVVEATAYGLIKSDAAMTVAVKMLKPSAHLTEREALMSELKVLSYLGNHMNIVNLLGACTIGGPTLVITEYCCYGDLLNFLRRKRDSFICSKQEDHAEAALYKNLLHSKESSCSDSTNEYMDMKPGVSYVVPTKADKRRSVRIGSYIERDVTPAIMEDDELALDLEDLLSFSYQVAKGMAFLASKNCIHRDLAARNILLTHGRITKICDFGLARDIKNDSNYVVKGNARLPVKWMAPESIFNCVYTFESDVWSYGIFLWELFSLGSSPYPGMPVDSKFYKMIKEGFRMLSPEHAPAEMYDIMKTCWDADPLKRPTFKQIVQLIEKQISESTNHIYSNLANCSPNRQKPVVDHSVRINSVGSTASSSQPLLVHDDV

SMILES	IC50 [nM]
Cc1nn(C(CO)CO)c(C)c1-c1ccn2ncc(C(=O)Nc3cc(-c4nnn(C5CC5)n4)ccc3Cl)c2c1 [Example 276, N-(2-chloro-5-(2-cyclopropyl-2H-tetrazol-5-yl)phenyl)-5-(1-(1,3-dihydroxypropan-2-yl)-3,5-dimethyl-1H-pyrazol-4-yl)pyrazolo[1,5-a]pyridine-3-carboxamide]	0.3
COCCNc1ccn2ncc(C(=O)Nc3cc(-c4nnn(C[C@@H]5CC5(F)F)n4)ccc3C)c2c1 (single isomer, unassigned) [Example 123, (S)-N-(5-(2-((2,2-difluorocyclopropyl)methyl)-2H-tetrazol-5-yl)-2-methylphenyl)-5-((2-methoxyethyl)amino)pyrazolo[1,5-a]pyridine-3-carboxamide or (R)-N-(5-(2-((2,2-difluorocyclopropyl)methyl)-2H-tetrazol-5-yl)-2-methylphenyl)-5-((2-methoxyethyl)amino)pyrazolo[1,5-a]pyridine-3-carboxamide]	3.4
Cc1nn(C[C@H](O)CO)c(C)c1-c1ccn2ncc(C(=O)Nc3cc(-c4nnn(C5CC5)n4)ccc3Cl)c2c1 [Example 275, (S)-N-(2-chloro-5-(2-cyclopropyl-2H-tetrazol-5-yl)phenyl)-5-(1-(2,3-dihydroxypropyl)-3,5-dimethyl-1H-pyrazol-4-yl)pyrazolo[1,5-a]pyridine-3-carboxamide]	0.1
Cc1ccc(-c2cnn(C3CC3)n2)cc1NC(=O)c1cnn2ccccc12 [Example 29, N-(5-(2-cyclopropyl-2H-1,2,3-triazol-4-yl)-2-methylphenyl)pyrazolo[1,5-a]pyridine-3-carboxamide]	11.1
COC(=O)N1CC(n2nnc(-c3ccc(C)c(NC(=O)c4cnn5ccc(N6CCO[C@H](CO)C6)cc45)c3)n2)C1 [Example 68, methyl (S)-3-(5-(3-(5-(2-(hydroxymethyl)morpholino)pyrazolo[1,5-a]pyridine-3-carboxamido)-4-methylphenyl)-2H-tetrazol-2-yl)azetidine-1-carboxylate]	61.3
COC(=O)N1CC(n2nnc(-c3ccc(C)c(NC(=O)c4cnn5ccc(N(C)C)cc45)c3)n2)C1 [Example 132, methyl 3-(5-(3-(5-(dimethylamino)pyrazolo[1,5-a]pyridine-3-carboxamido)-4-methylphenyl)-2H-tetrazol-2-yl)azetidine-1-carboxylate]	21.4
COCCNc1ccn2ncc(C(=O)Nc3cc(-n4nnc(C5CN(C(=O)OC)C5)n4)ccc3C)c2c1 [Example 125, methyl 3-(2-(3-(5-((2-methoxyethyl)amino)pyrazolo[1,5-a]pyridine-3-carboxamido)-4-methylphenyl)-2H-tetrazol-5-yl)azetidine-1-carboxylate]	7.2
COCCNc1ccn2ncc(C(=O)Nc3cc(-c4nnn(C)n4)ccc3C)c2c1 [Example 87, 5-((2-methoxyethyl)amino)-N-(2-methyl-5-(2-methyl-2H-tetrazol-5-yl)phenyl)pyrazolo[1,5-a]pyridine-3-carboxamide]	34.5
Cc1ccc(-c2nnn(C3CC3)n2)cc1NC(=O)c1cnn2ccc(-c3cnn(CCN4CCN(C)CC4)c3)cc12 [Example 219, N-(5-(2-cyclopropyl-2H-tetrazol-5-yl)-2-methylphenyl)-5-(1-(2-(4-methylpiperazin-1-yl)ethyl)-1H-pyrazol-4-yl)pyrazolo[1,5-a]pyridine-3-carboxamide]	1.1
O=C(Nc1cc(-c2nnn(C3CC(F)(F)C3)n2)c(F)cc1Cl)c1cnn2ccc(N3CCOCC3)cc12 [Example 63, N-(2-chloro-5-(2-(3,3-difluorocyclobutyl)-2H-tetrazol-5-yl)-4-fluorophenyl)-5-morpholinopyrazolo[1,5-a]pyridine-3-carboxamide]	10.5
CNc1ccn2ncc(C(=O)Nc3cc(-n4ncc(C5CN(C(=O)OC)C5)n4)ccc3C)c2c1 [Example 138, methyl 3-(2-(4-methyl-3-(5-(methylamino)pyrazolo[1,5-a]pyridine-3-carboxamido)phenyl)-2H-1,2,3-triazol-4-yl)azetidine-1-carboxylate]	13.4
Cc1ccc(-c2nnn(C3CC(F)(F)C3)n2)cc1NC(=O)c1cnn2ccc(N3CC(O)C3)cc12 [Example 60, N-(5-(2-(3,3-difluorocyclobutyl)-2H-tetrazol-5-yl)-2-methylphenyl)-5-(3-hydroxyazetidin-1-yl)pyrazolo[1,5-a]pyridine-3-carboxamide]	1.8
COC(=O)N1CC(c2cnn(-c3ccc(C)c(NC(=O)c4cnn5ccc(N6CCN(C7COC7)CC6)cc45)c3)n2)C1 [Example 83, methyl 3-(2-(4-methyl-3-(5-(4-(oxetan-3-yl)piperazin-1-yl)pyrazolo[1,5-a]pyridine-3-carboxamido)phenyl)-2H-1,2,3-triazol-4-yl)azetidine-1-carboxylate]	50.4
COC(=O)N1CC(n2nnc(-c3cc(NC(=O)c4cnn5cc(N6CCOCC6)ccc45)c(C)cc3F)n2)C1 [Example 224, methyl 3-(5-(2-fluoro-4-methyl-5-(6-morpholinopyrazolo[1,5-a]pyridine-3-carboxamido)phenyl)-2H-tetrazol-2-yl)azetidine-1-carboxylate]	27
Cn1nnc(-c2ccc(Cl)c(NC(=O)c3cnn4ccc(-c5cnn(CC(C)(C)O)c5)cc34)c2)n1 [Example 210, N-(2-chloro-5-(2-methyl-2H-tetrazol-5-yl)phenyl)-5-(1-(2-hydroxy-2-methylpropyl)-1H-pyrazol-4-yl)pyrazolo[1,5-a]pyridine-3-carboxamide]	7.4
O=C(Nc1cc(-c2nnn(CC3CC(F)(F)C3)n2)ccc1Cl)c1cnn2ccccc12 [Example 19, N-(2-chloro-5-(2-((3,3-difluorocyclobutyl)methyl)-2H-tetrazol-5-yl)phenyl)pyrazolo[1,5-a]pyridine-3-carboxamide]	7.5
Cc1cc(C)c(-c2nnn(CC3CC3(F)F)n2)cc1NC(=O)c1cnn2ccccc12 (stereo not drawn) [Example 21, N-(5-(2-((2,2-difluorocyclopropyl)methyl)-2H-tetrazol-5-yl)-2,4-dimethylphenyl)pyrazolo[1,5-a]pyridine-3-carboxamide]	6.4
Cc1nn(CC(C)(C)O)cc1-c1ccn2ncc(C(=O)Nc3cc(-c4nnn(C5CC5)n4)ccc3Cl)c2c1 [Example 250, N-(2-chloro-5-(2-cyclopropyl-2H-tetrazol-5-yl)phenyl)-5-(1-(2-hydroxy-2-methylpropyl)-3-methyl-1H-pyrazol-4-yl)pyrazolo[1,5-a]pyridine-3-carboxamide]	0.4
Cc1ccc(-c2nnn(CC3CC4(CCC4)CO3)n2)cc1NC(=O)c1cnn2ccccc12 (stereo not drawn) [Example 9, N-(5-(2-((6-oxaspiro[3.4]octan-7-yl)methyl)-2H-tetrazol-5-yl)-2-methylphenyl)pyrazolo[1,5-a]pyridine-3-carboxamide]	4.8
Cc1ccc(-n2nnc(C3CN(S(C)(=O)=O)C3)n2)cc1NC(=O)c1cnn2ccccc12 [Example 190]	22.8
Cc1cc(F)c(-c2nnn(C3CC(F)(F)C3)n2)cc1NC(=O)c1cnn2ccc(N3CCOCC3)cc12 [Example 59, N-(5-(2-(3,3-difluorocyclobutyl)-2H-tetrazol-5-yl)-4-fluoro-2-methylphenyl)-5-morpholinopyrazolo[1,5-a]pyridine-3-carboxamide]	4.5
